Results: patent US20230096766A1, “AMINO ACID HAVING FUNCTIONAL GROUP CAPABLE OF INTERMOLECULAR HYDROGEN BONDING, PEPTIDE COMPOUND CONTAINING SAME AND METHOD FOR PRODUCTION THEREOF” (Chugai Seiyaku Kabushiki Kaisha, priority 2018, published 2023)
*1 amine or outer side, *2 acyl side, *3 side chain or, on linkers, in order; H or OH if unused. Where a SMILES comes first, the peptide text is derived from it. Bridges are numbered along the chain shown (N, C = ends). [ ]: non-standard residue; d: D form. The star is where a group is joined. X19 = CC(C)C[C@H](NN(C)[C@H](Cc1ccccc1)N(C)[*:1])C(=O)[*:2]; Tyr(3-OMe) = COc1cc(C[C@H](N)C(=O)O)ccc1O; NMehPhe = CN[C@@H](CCc1ccccc1)C(=O)O; NMeF = CN[C@@H](Cc1ccccc1)C(=O)O; NMeGABA = CN(CCCC(=O)[*:2])[*:1]; NMeI = CC[C@H](C)[C@H](NC)C(=O)O; NMeL = CN[C@@H](CC(C)C)C(=O)O; NMeAbu = CC[C@H](NC)C(=O)O; Piperidide = C1CCN(*)CC1; CH2CONHMe = CNC(=O)C*; NBuGly = CCCCNCC(=O)O; NPrGly = CCCNCC(=O)O; Sar = CNCC(=O)O; tBu = CC(C)(C)*

Experiment: in vitro
Details: human
[1] = Caco-2, Caco-2 (membrane permeability)

COc1cc(C[C@@H]2NC(=O)[C@H](CC(C)C)N(C)C(=O)CCCN(C)C(=O)C[C@@H](C(=O)N3CCCCC3)NC(=O)[C@H](CC(C)C)N(C)C(=O)[C@H](CC(C)C)N(C)C(=O)[C@H]([C@@H](C)O)NC(=O)[C@H](CC(C)C)N(C)C(=O)[C@H](COC(C)(C)C)NC(=O)[C@H](Cc3ccccc3)N(C)C(=O)[C@H](CC(C)C)N(C)C2=O)ccc1O [Compound E04] ([NMeGABA][NMeL][Tyr(3-OMe)][NMeL][NMeF]S(tBu)[NMeL]T[NMeL][NMeL]D-Piperidide; lactam N-11)
Papp (Caco-2, Caco-2 (cm/sec)): 0.4 ×10⁻⁶ cm/s

CC[C@H]1C(=O)N[C@@H](CC(C)C)C(=O)N(C)[C@@H](CC(C)C)C(=O)N(C)[C@@H](Cc2ccccc2)C(=O)N[C@@H](Cc2ccc(O)c(OC)c2)C(=O)N(C)[C@@H](CC(C)C)C(=O)N(C)[C@@H](CC(C)C)C(=O)N[C@@H]([C@@H](C)O)C(=O)N(C)CC(=O)N(C)[C@@H](CC(C)C)C(=O)N[C@H](C(=O)N2CCCCC2)CC(=O)N1C [Compound E05] ([NMeAbu]L[NMeL][NMeF][Tyr(3-OMe)][NMeL][NMeL]T[Sar][NMeL]D-Piperidide; lactam N-11)
Papp (Caco-2, Caco-2 (cm/sec)): 1.8 ×10⁻⁶ cm/s

CC[C@H]1C(=O)N[C@@H](Cc2ccc(O)c(OC)c2)C(=O)N(C)[C@@H](CC(C)C)C(=O)N(C)[C@@H](CC(C)C)C(=O)N[C@@H](C(C)C)C(=O)N(C)[C@@H](Cc2ccccc2)C(=O)N(C)[C@@H](CC(C)C)C(=O)N[C@@H]([C@@H](C)O)C(=O)N(C)CC(=O)N(C)[C@@H](CC(C)C)C(=O)N[C@H](C(=O)N2CCCCC2)CC(=O)N1C [Compound E06] ([NMeAbu][Tyr(3-OMe)][NMeL][NMeL]V[NMeF][NMeL]T[Sar][NMeL]D-Piperidide; lactam N-11)
Papp (Caco-2, Caco-2 (cm/sec)): 0.97 ×10⁻⁶ cm/s

CCCCN1CC(=O)N(C)[C@@H](Cc2ccccc2)C(=O)N(C)[C@@H](CC(C)C)C(=O)N[C@@H](CC(C)C)C(=O)N(C)[C@@H](CC(C)C)C(=O)N[C@H](C(=O)N2CCCCC2)CC(=O)N(C)CC(=O)N(C)[C@@H](CC(C)C)C(=O)N[C@@H](Cc2ccc(O)c(OC)c2)C(=O)N(C)[C@@H](CC)C(=O)N[C@@H]([C@@H](C)O)C1=O [Compound E07] ([Sar][NMeL][Tyr(3-OMe)][NMeAbu]T[NBuGly][NMeF][NMeL]L[NMeL]D-Piperidide; lactam N-11)
Papp (Caco-2, Caco-2 (cm/sec)): 1.1 ×10⁻⁶ cm/s

CCCCN1CC(=O)N(C)[C@@H](Cc2ccccc2)C(=O)N(C)[C@@H](CC(C)C)C(=O)N[C@@H](Cc2ccc(O)c(OC)c2)C(=O)N(C)[C@@H](CC(C)C)C(=O)N[C@H](C(=O)N2CCCCC2)CC(=O)N(C)CC(=O)N(C)[C@@H](CC(C)C)C(=O)N[C@@H]([C@@H](C)CC)C(=O)N(C)[C@@H](CC(C)C)C(=O)N[C@@H]([C@@H](C)O)C1=O [Compound E08] ([Sar][NMeL]I[NMeL]T[NBuGly][NMeF][NMeL][Tyr(3-OMe)][NMeL]D-Piperidide; lactam N-11)
Papp (Caco-2, Caco-2 (cm/sec)): 0.12 ×10⁻⁶ cm/s

CC(C)C[C@@H]1NN(C)[C@H](Cc2ccccc2)N(C)C(=O)[C@@H](C(C)C)NC(=O)C[C@@H](C(=O)N2CCCCC2)NC(=O)[C@H](CC(C)C)N(C)C(=O)[C@H](CC(C)C)N(C)C(=O)[C@H](Cc2ccc(O)cc2)NC(=O)[C@H](CC(C)C)N(C)C(=O)CN(C)C(=O)[C@H]([C@@H](C)O)NC(=O)[C@H](CC(C)C)N(C)C1=O [Compound F01] ([dV][X19][NMeL]T[Sar][NMeL]Y[NMeL][NMeL]D-Piperidide; lactam N-10)
Papp (Caco-2, Caco-2 (cm/sec)): 0.32 ×10⁻⁶ cm/s

CCCCN1CC(=O)N(C)[C@@H](CC(C)C)C(=O)N[C@@H](COC(C)(C)C)C(=O)N(C)[C@@H](CC(C)C)C(=O)N(C)[C@@H](CC)C(=O)N[C@H](C(=O)N2CCCCC2)CC(=O)N[C@H](CC(C)C)C(=O)N(C)[C@@H](Cc2ccccc2)C(=O)N[C@@H](Cc2ccc(O)cc2)C(=O)N(C)[C@@H](CC(C)C)C(=O)N[C@@H]([C@@H](C)O)C1=O [Compound F02] ([dL][NMeF]Y[NMeL]T[NBuGly][NMeL]S(tBu)[NMeL][NMeAbu]D-Piperidide; lactam N-11)
Papp (Caco-2, Caco-2 (cm/sec)): 0.04 ×10⁻⁶ cm/s

CC[C@H](C)[C@@H]1NC(=O)[C@H](CC(C)C)N(C)C(=O)CCCN(C)C(=O)C[C@@H](C(=O)N2CCCCC2)NC(=O)[C@H](CC(C)C)N(C)C(=O)[C@H](CC(C)C)N(C)C(=O)[C@H]([C@@H](C)O)NC(=O)[C@H](CC(C)C)N(C)C(=O)[C@H](Cc2ccc(O)cc2)NC(=O)[C@H](CC(C)C)N(C)C(=O)[C@H](Cc2ccccc2)N(C)C1=O [Compound F03] ([NMeGABA][NMeL]I[NMeF][NMeL]Y[NMeL]T[NMeL][NMeL]D-Piperidide; lactam N-11)
Papp (Caco-2, Caco-2 (cm/sec)): 0.13 ×10⁻⁶ cm/s

CC(C)C[C@H]1C(=O)N[C@@H](Cc2ccc(O)cc2)C(=O)N(C)[C@@H](CC(C)C)C(=O)N(C)[C@@H](Cc2ccccc2)C(=O)N[C@@H](COC(C)(C)C)C(=O)N(C)[C@@H](CC(C)C)C(=O)N[C@@H]([C@@H](C)O)C(=O)N(C)[C@@H](CC(C)C)C(=O)N(C)[C@@H](CC(C)C)C(=O)N[C@H](C(=O)N2CCCCC2)CC(=O)N(C)CCCC(=O)N1C [Compound F04] ([NMeGABA][NMeL]Y[NMeL][NMeF]S(tBu)[NMeL]T[NMeL][NMeL]D-Piperidide; lactam N-11)
Papp (Caco-2, Caco-2 (cm/sec)): 0.13 ×10⁻⁶ cm/s

CC[C@H]1C(=O)N[C@@H](CC(C)C)C(=O)N(C)[C@@H](CC(C)C)C(=O)N(C)[C@@H](Cc2ccccc2)C(=O)N[C@@H](Cc2ccc(O)cc2)C(=O)N(C)[C@@H](CC(C)C)C(=O)N(C)[C@@H](CC(C)C)C(=O)N[C@@H]([C@@H](C)O)C(=O)N(C)CC(=O)N(C)[C@@H](CC(C)C)C(=O)N[C@H](C(=O)N2CCCCC2)CC(=O)N1C [Compound F05] ([NMeAbu]L[NMeL][NMeF]Y[NMeL][NMeL]T[Sar][NMeL]D-Piperidide; lactam N-11)
Papp (Caco-2, Caco-2 (cm/sec)): 0.38 ×10⁻⁶ cm/s

CC[C@H]1C(=O)N[C@@H](Cc2ccc(O)cc2)C(=O)N(C)[C@@H](CC(C)C)C(=O)N(C)[C@@H](CC(C)C)C(=O)N[C@@H](C(C)C)C(=O)N(C)[C@@H](Cc2ccccc2)C(=O)N(C)[C@@H](CC(C)C)C(=O)N[C@@H]([C@@H](C)O)C(=O)N(C)CC(=O)N(C)[C@@H](CC(C)C)C(=O)N[C@H](C(=O)N2CCCCC2)CC(=O)N1C [Compound F06] ([NMeAbu]Y[NMeL][NMeL]V[NMeF][NMeL]T[Sar][NMeL]D-Piperidide; lactam N-11)
Papp (Caco-2, Caco-2 (cm/sec)): 0.23 ×10⁻⁶ cm/s

CCCCN1CC(=O)N(C)[C@@H](Cc2ccccc2)C(=O)N(C)[C@@H](CC(C)C)C(=O)N[C@@H](CC(C)C)C(=O)N(C)[C@@H](CC(C)C)C(=O)N[C@H](C(=O)N2CCCCC2)CC(=O)N(C)CC(=O)N(C)[C@@H](CC(C)C)C(=O)N[C@@H](Cc2ccc(O)cc2)C(=O)N(C)[C@@H](CC)C(=O)N[C@@H]([C@@H](C)O)C1=O [Compound F07] ([Sar][NMeL]Y[NMeAbu]T[NBuGly][NMeF][NMeL]L[NMeL]D-Piperidide; lactam N-11)
Papp (Caco-2, Caco-2 (cm/sec)): 0.54 ×10⁻⁶ cm/s

CCCCN1CC(=O)N(C)[C@@H](Cc2ccccc2)C(=O)N(C)[C@@H](CC(C)C)C(=O)N[C@@H](Cc2ccc(O)cc2)C(=O)N(C)[C@@H](CC(C)C)C(=O)N[C@H](C(=O)N2CCCCC2)CC(=O)N(C)CC(=O)N(C)[C@@H](CC(C)C)C(=O)N[C@@H]([C@@H](C)CC)C(=O)N(C)[C@@H](CC(C)C)C(=O)N[C@@H]([C@@H](C)O)C1=O [Compound F08] ([Sar][NMeL]I[NMeL]T[NBuGly][NMeF][NMeL]Y[NMeL]D-Piperidide; lactam N-11)
Papp (Caco-2, Caco-2 (cm/sec)): 0.05 ×10⁻⁶ cm/s

CCCCN1CC(=O)N(C)[C@@H](CC(C)C)C(=O)N[C@@H](COCC(=O)NC)C(=O)N(C)[C@@H](CCc2ccccc2)C(=O)N(C)[C@@H](CC(C)C)C(=O)N[C@H](C(=O)N2CCCCC2)CC(=O)N[C@H](CC(C)C)C(=O)N(C)[C@@H](CC(C)C)C(=O)N[C@@H](Cc2ccccc2)C(=O)N(C)[C@@H](CC(C)C)C(=O)N[C@@H]([C@@H](C)O)C1=O [Compound I02] ([dL][NMeL]F[NMeL]T[NBuGly][NMeL]S(CH2CONHMe)[NMehPhe][NMeL]D-Piperidide; lactam N-11)
Papp [1]: 0.052 ×10⁻⁶ cm/s

CNC(=O)COC[C@@H]1NC(=O)[C@H](CC(C)C)N(C)C(=O)C[C@@H](C(=O)N2CCCCC2)NC(=O)[C@H](CC(C)C)N(C)C(=O)CN(C)C(=O)[C@H]([C@@H](C)O)NC(=O)[C@H](CC(C)C)N(C)C(=O)[C@H](CCc2ccccc2)N(C)C(=O)[C@H](CC(C)C)NC(=O)[C@H](Cc2ccccc2)N(C)C(=O)[C@H](CC(C)C)N(C)C1=O [Compound I03] ([NMeL]S(CH2CONHMe)[NMeL][NMeF]L[NMehPhe][NMeL]T[Sar][NMeL]D-Piperidide; lactam N-11)
Papp [1]: 0.25 ×10⁻⁶ cm/s

CCCN1CC(=O)N(C)[C@@H](CC(C)C)C(=O)N[C@H](C(=O)N2CCCCC2)CC(=O)N(C)[C@@H](CC(C)C)C(=O)N[C@@H](Cc2ccccc2)C(=O)N(C)[C@@H](CC(C)C)C(=O)N(C)[C@@H](CC(C)C)C(=O)N[C@@H](COCC(=O)NC)C(=O)N(C)[C@@H](CCc2ccccc2)C(=O)N(C)[C@@H](CC(C)C)C(=O)N[C@@H]([C@@H](C)O)C1=O [Compound I04] ([NMeL]F[NMeL][NMeL]S(CH2CONHMe)[NMehPhe][NMeL]T[NPrGly][NMeL]D-Piperidide; lactam N-11)
Papp [1]: 0.55 ×10⁻⁶ cm/s

CCCCN1CC(=O)N(C)[C@@H](Cc2ccccc2)C(=O)N[C@@H](COCC(=O)NC)C(=O)N(C)[C@@H](CC(C)C)C(=O)N[C@@H]([C@@H](C)O)C(=O)N(CCC)CC(=O)N(C)[C@@H](Cc2ccccc2)C(=O)N(C)[C@@H](CC(C)C)C(=O)N[C@@H](CC(C)C)C(=O)N(C)[C@@H](CC(C)C)C(=O)N[C@H](C(=O)N2CCCCC2)CC1=O [Compound I05] ([NBuGly][NMeF]S(CH2CONHMe)[NMeL]T[NPrGly][NMeF][NMeL]L[NMeL]D-Piperidide; lactam N-11)
Papp [1]: 0.8 ×10⁻⁶ cm/s

CCCCN1CC(=O)N(C)[C@@H](Cc2ccccc2)C(=O)N[C@@H]([C@@H](C)CC)C(=O)N(C)[C@@H](CC(C)C)C(=O)N[C@@H]([C@@H](C)O)C(=O)N(CCC)CC(=O)N(C)[C@@H](Cc2ccccc2)C(=O)N(C)[C@@H](CC(C)C)C(=O)N[C@@H](COCC(=O)NC)C(=O)N(C)[C@@H](CC(C)C)C(=O)N[C@H](C(=O)N2CCCCC2)CC1=O [Compound I06] ([NBuGly][NMeF]I[NMeL]T[NPrGly][NMeF][NMeL]S(CH2CONHMe)[NMeL]D-Piperidide; lactam N-11)
Papp [1]: 0.24 ×10⁻⁶ cm/s

CCCCN1CC(=O)N(C)[C@@H](CC(C)C)C(=O)N[C@@H](CC(C)C)C(=O)N(C)[C@@H](Cc2ccccc2)C(=O)N(C)[C@@H]([C@@H](C)CC)C(=O)N[C@H](C(=O)N2CCCCC2)CC(=O)N[C@H](CC(C)C)C(=O)N(C)[C@@H](Cc2ccccc2)C(=O)N[C@@H](CCC(=O)NC)C(=O)N(C)[C@@H](CC(C)C)C(=O)N[C@@H]([C@@H](C)O)C1=O [Compound J01] ([dL][NMeF]E(NHMe)[NMeL]T[NBuGly][NMeL]L[NMeF][NMeI]D-Piperidide; lactam N-11)
Papp [1]: 0.062 ×10⁻⁶ cm/s
